Test results from patent publication US9358207B2, “Flashmelt oral dosage formulation” (OTSUKA PHARMACEUTICAL CO., LTD., priority 2000, dated 2016).

Assay: Hygroscopicity: water content of crystals after storage in dessicator
Format: physicochemical
Details: after 24 hours inside a dessicator at 60° C. and humidity of 100%
Experimental: For example, Aripiprazole Anhydride Crystals B of the present invention maintain a water content of 0.4% or less after 24 hours inside a dessicator set at a temperature of 60° C. and a humidity of 100%.
Well-known methods of measuring water content can be used as long as they are methods commonly used for measuring the water content of crystals. For example, a method such as the Karl Fischer method can be used.

water content: ≤ 0.4%
Structure (SMILES): O=C1CCc2ccc(OCCCCN3CCN(c4cccc(Cl)c4Cl)CC3)cc2N1 [Aripiprazole Anhydride Crystals B, aripiprazole]
